Results from US20210352895A1, “SYNERGISTIC PESTICIDAL COMPOSITIONS AND METHODS FOR DELIVERY OF ACTIVE INGREDIENTS” (0903608 B.C. Ltd., priority 2018, published 2021).
Where two headings read alike, the source gives them in different places.

Legend:
[1] = tested on: Fusarium oxysporum; test: Synergistic Growth Inhibition Assay (MIC / FIC index, resazurin, 96-well) on Fusarium oxysporum; format: cell-based; details: for MIC: 48 h
Method: (§1) In some embodiments, the synergistic action between the pesticidal active ingredient, and the at least one C4-C10 (or alternatively C11 or C12) saturated or unsaturated aliphatic acid components of the pesticidal compositions according to embodiments of the present disclosure was tested using a Synergistic Growth Inhibition Assay, which is derived from and related to a checkerboard assay as is known in the art for testing of combinations of antimicrobial agents. In the Synergistic Growth Inhibition Assay used in accordance with some embodiments of the present disclosure, multiple dilutions of combinations of pesticidal active ingredient and at least one C4-C10 saturated or unsaturated aliphatic acid agents are tested in individual cells for inhibitory activity against a target pest or pathogenic organism. In one such embodiment, the combinations of pesticidal active ingredient and C4-C10 (or alternatively C11 or C12) saturated or unsaturated aliphatic acid agents may preferably be tested in decreasing concentrations. In a further such embodiment, the combinations of pesticidal active ingredient and C4-C10 (or alternatively C11 or C12) saturated or unsaturated aliphatic acid agents may be tested in increasing concentrations. These multiple combinations of the pesticidal active ingredient and at least one C4-C10 (or alternatively C11 or C12) saturated or unsaturated aliphatic acid agents may be prepared in 96-well microtiter plates. In one such embodiment, the Synergistic Growth Inhibition Assay then comprises rows which each contain progressively decreasing concentrations of the pesticidal active ingredient and one or more C4-C10 (or alternatively C11 or C12) saturated or unsaturated aliphatic acid agents to test for the MIC of the agents in combination at which growth of the target pest or pathogen is inhibited. Thus, each well of the microtiter plate is a unique combination of the two agents, at which inhibitory efficacy of the combination against the target pest or pathogen can be determined.
(§2) In one embodiment according to the present disclosure, for each row of microtiter cells in the Synergistic Growth Inhibition Assay, the FIC index is calculated from the lowest concentration of the pesticidal active ingredient and one or more C4-C10 saturated or unsaturated aliphatic acid agents necessary to inhibit growth of a target pest or pathogen. The FIC of each component is derived by dividing the concentration of the agent present in that well of the microtiter plate by the minimal inhibitory concentration (MIC) needed of that agent alone to inhibit growth of the target pest or pathogen. The FIC index is then the sum of these values for both agents in that well of the microtiter plate. The FIC index is calculated for each row as follows:
(§3) FICindex=MICa/MICA+MICb/MICB
(§4) Fractional inhibitory concentration indices may then used as measure of synergy. […] When the FIC index is equal to 1, the combination is additive.
(§5) Then, serial dilutions of these initial compositions in successive wells in the row of the microtiter plate were used to assay the pesticidal composition under the same conditions to determine the concentration of the composition combining the two agents corresponding to the microtiter well in which growth inhibition of the target pest or organism ceases.
Resazurin dye (also known as Alamar blue dye) was used as an indicator to determine the presence of growth or inhibition of growth of Fusarium oxysporum in the wells of the 96 well microtiter plates used in the exemplary Synergistic Growth Inhibition Assay. In addition to the color change of the resazurin dye in the presence of growth of the Fusarium oxysporum, an optical or visual examination of the microtiter well may also be made to additionally determine the presence of growth or inhibition of growth of the Fusarium oxysporum.

[2] = tested on: Sclerotinia sclerotiorum; test: Synergistic Growth Inhibition Assay (MIC / FIC index, resazurin, 96-well) on Sclerotinia sclerotiorum; format: cell-based; details: for MIC (A): Compound A alone
Method: as §1, §2, §3, §4, §5
(§6) Similarly to as described above, Resazurin was used as an indicator of growth or inhibition of growth of Sclerotinia sclerotiorum in the exemplary Synergistic Growth Inhibition Assay. In addition to the color change of the resazurin, an optical or visual examination of the microtiter well may also be made to additionally determine the presence of growth or inhibition of growth of the Sclerotinia sclerotiorum.

[3] = tested on: Botrytis cinerea; test: Synergistic Growth Inhibition Assay (MIC / FIC index, resazurin, 96-well) on Botrytis cinerea; format: cell-based; details: Botrytis cinerea; for MIC: 48 h
Method: as §1, §2, §3, §4, §5
as §6, with “Botrytis cinerea” for “Sclerotinia sclerotiorum”, “Botrytis cinerea.” for “Sclerotinia sclerotiorum.”

[4] = tested on: Trichoplusia ni; test: In-vitro insecticidal efficacy of Entrust SC (spinosad) with saturated and unsaturated aliphatic acids on artificial diet, Abbott and Colby formulae; format: in vivo, Trichoplusia ni (cabbage looper); details: Entrust SC 0.034 ppm ([…] spinosad); aliphatic acid (salt) 500 ppm; Abbott-corrected
Method: An artificial diet suitable for Trichoplusia ni (cabbage looper caterpillar) was prepared from a commercially available general purpose lepidoptera artificial diet premix (General Purpose Lepidoptera Diet available from Frontier Scientific Services, Newark, Del.) mixed in agar media and then heated to liquify the media. The liquid artificial diet media was then used to fill each well of a 96-well treatment plate with 200 uL of artificial diet media, which was allowed to solidify at room temperature and stored at approximately 4 C.
A 20 uL treatment sample of each treatment formulation was then placed on top of the solidified artificial diet media in each well of the 96 well plates and allowed to dry overnight. The following day, one neonate Trichoplusia ni (cabbage looper) larva (hatched from eggs obtained from the Natural Resource Canada insect research facility in Sault-Ste-Marie, ON, Canada) was added to each well of the plate, and their mortality rate was evaluated after 5 days, to determine the insecticidal efficacy of the Entrust® SC treatment alone, each exemplary unsaturated or saturated aliphatic acid (and salt) alone, and each combination of spinosad (as Entrust® SC) and unsaturated or saturated aliphatic acid (and salt). Each experiment contained 3 replicates.
While for SF<1, antagonism is present and for SF=1, the efficacy of the compounds is merely additive.

[5] = Fusarium oxysporum, Compound B alone, Fusarium oxysporum, 48 hours incubation, read-out: MIC (B)
[6] = Sclerotinia sclerotiorum, Compound B alone, Sclerotinia sclerotiorum, incubation period of 7 days, read-out: MIC (B)
[7] = Fusarium oxysporum, Compound B alone, Fusarium oxysporum, incubation period of 48 hours, read-out: MIC (B)
[8] = Sclerotinia sclerotiorum, Compound B alone, Sclerotinia sclerotiorum, 7 days incubation, read-out: MIC (B)
[9] = Compound B alone, 48 hours incubation
[10] = Sclerotinia sclerotiorum, read-out: MIC (B), Compound B alone, Sclerotinia sclerotiorum, 7 days incubation
[11] = Compound A alone, incubation period of 48 hours, read-out: MIC (A)
[12] = Compound A alone, 48 hours incubation
[13] = Compound A alone, incubation period of 2 days
[14] = Compound A alone, incubation period of 48 hours

## CCC(CC)(CC)C(=O)O [2,2-diethylbutyric acid]
[1]; [5]
  MIC: 250 µg/mL
[2]; [6]
  MIC: 250 µg/mL

## CC=CC=CC(=O)O [2,4-Dihexenoic acid]
[3]; Compound B alone, incubation period of 48 hours
  MIC (B): 125 µg/mL

## CCC(O)C(=O)O (stereo not shown) [2-hydroxybutyric acid]
[1]; [5]
  MIC: 5000 µg/mL
[1]; [7]
  MIC: 5000 µg/mL
[2]; [8]
  MIC: 2500 µg/mL
[2]; [6]
  MIC: 2500 µg/mL

## CCCCC(O)C(=O)O (stereo not shown) [2-hydroxyhexanoic acid]
[1]; [5]
  MIC: 2500 µg/mL
[1]; [7]
  MIC: 2500 µg/mL
[3]; Compound B alone, 48 hours incubation, read-out: MIC (B)
  MIC: 2500 µg/mL
[3]; Compound B alone, incubation period of 2 days, read-out: MIC (B)
  MIC: 2500 µg/mL
[2]; [6]
  MIC: 2500 µg/mL

## CCCCCCC(O)C(=O)O (stereo not shown) [2-hydroxyoctanoic acid]
[1]; [5]
  MIC: 625 µg/mL
[1]; [7]
  MIC: 625 µg/mL
[2]; [6]
  MIC: 312 µg/mL

## CCCCCCC=CCC(=O)O [3-Decenoic acid, 3-decenoic acid]
[1]; Compound B (aliphatic acid) alone, Fusarium oxysporum, incubation period of 48 hours
  MIC (B): 312.5 µg/mL
[4]
  Observed Efficacy, W (%): 0%

## CC(O)CC(=O)O (stereo not shown) [3-Hydroxybutyric acid, 3-hydroxybutyric acid]
[3]; [9]
  MIC (B): 10000 µg/mL

## CCCC(O)CC(=O)O (stereo not shown) [3-Hydroxyhexanoic acid, 3-hydroxyhexanoic acid]
[3]; [9]
  MIC (B): 2500 µg/mL

## CCCCC=CCC(=O)O [3-Octenoic acid, 3-octenoic acid]
[4]
  Observed Efficacy, W (%): 0%

## CCCC=CCC(=O)O [3-heptanoic acid]
[4]
  Observed Efficacy, W (%): 4.5%

## CCCCCC(O)CC(=O)O (stereo not shown) [3-hydroxyoctanoic acid]
[1]; [7]
  MIC: 1250 µg/mL
[2]; [8]
  MIC: 625 µg/mL
[2]; [6]
  MIC: 625 µg/mL

## CC(C)CC(=O)O [3-methylbutyric acid]
[1]; [5]
  MIC: 625 µg/mL
[2]; [8]
  MIC: 312 µg/mL

## CCCC(C)CC(=O)O (stereo not shown) [3-methylhexanoic acid]
[1]; [5]
  MIC: 125 µg/mL
[2]; [8]
  MIC: 125 µg/mL
[2]; [6]
  MIC: 125 µg/mL

## CCCCCC=CCC(=O)O [3-nonenoic acid]
[4]
  Observed Efficacy, W (%): 9.1%

## CCC(C)CCC(=O)O (stereo not shown) [4-methylhexanoic acid]
[1]; [5]
  MIC: 156 µg/mL
[3]; Compound B alone, incubation period of 48 hours, read-out: MIC (B)
  MIC: 156 µg/mL
[2]; [8]
  MIC: 78.1 µg/mL
[2]; [6]
  MIC: 78.1 µg/mL

## C=CCCCC(=O)O [5-hexenoic acid]
[4]
  Observed Efficacy, W (%): 0%

## C=CCCCCCC(=O)O [7-octenoic acid]
[4]
  Observed Efficacy, W (%): 0%

## C=CCCCCCCCC(=O)O [9-Decenoic acid, 9-decenoic acid]
[4]
  Observed Efficacy, W (%): 4.5%

## O=C(O)CCCCCCCCCO [10-hydroxydecanoic acid]
[1]; Fusarium oxysporum, read-out: MIC (B), Compound B alone, Fusarium oxysporum, 48 hours incubation
  MIC: 1000 µg/mL
[3]; read-out: MIC (B), Compound B alone, 48 hours incubation
  MIC: 500 µg/mL
[3]; read-out: MIC (B), Compound B alone, incubation period of 2 days
  MIC: 500 µg/mL
[2]; [10]
  MIC: 1000 µg/mL

## O=C(O)CCCCCCCCCCCO [12-hydroxydodecanoic acid]
[2]; [10]
  MIC: 100 µg/mL
[2]; Sclerotinia sclerotiorum, read-out: MIC (B), Compound B alone, Sclerotinia sclerotiorum, incubation period of 7 days
  MIC: 100 µg/mL

## C/C=C/C=C/C(=O)[O-].[K+] [(2E,4E)-2,4 hexadienoic acid, K-salt]
[4]
  Observed Efficacy, W (%): 9.1%

## C/C=C/C=C/C(=O)O [(2E,4E)-2,4 hexadienoic acid]
[4]
  Observed Efficacy, W (%): 4.5%

## Cc1cc(C2CC2)nc(Nc2ccccc2)n1 [Cyprodinil, reference compound]
[3]; [11]
  MIC: 9 µg/mL

## CC1COC(Cn2cncn2)(c2ccc(Oc3ccc(Cl)cc3)cc2Cl)O1 (stereo not shown) [Difenoconazole, reference compound]
[1]; [12]
  MIC (A): 51 µg/mL
[3]; [11]
  MIC: 25.5 µg/mL
[3]; [13]
  MIC (A): 51 µg/mL

## CCCCCCCCCCCC(=O)O [Dodecanoic acid, dodecanoic acid]
[4]
  Observed Efficacy, W (%): 0%

## N#Cc1c[nH]cc1-c1cccc2c1OC(F)(F)O2 [Fludioxonil, fludioxonil, reference compound]
[3]; read-out: MIC (A), Compound A alone, incubation period of 2 days
  MIC: 0.164 µg/mL
[2]; Sclerotinia sclerotiorum, read-out: MIC (A), Compound A alone, Sclerotinia sclerotiorum, incubation period of 7 days
  MIC: 0.328 µg/mL

## CC(C)C1C2CCC1c1c(NC(=O)c3cn(C)nc3C(F)F)cccc12 (stereo not shown) [Isopyrazam, reference compound]
[3]; [14]
  MIC (A): 31.25 µg/mL

## C=C(C)[C@@H]1CCC2=CC(=O)C[C@@H](C)[C@]2(C)C1 [Nootkatone (+)]
[1]; Compound A alone, Fusarium oxysporum, incubation period of 48 hours
  MIC (A): 500 µg/mL
[1]; Table 60, Compound A = nootkatone(+), alone or in combination with Compound B, incubation period not stated in table (either 24 hours or 4 days)
  MIC (A): 500 µg/mL
[3]; [14]
  MIC (A): 125 µg/mL

## CCCCCCCC(=O)[O-].[K+] [Octanoic acid, K-salt]
[4]
  Observed Efficacy, W (%): 0%

## CCCCCCCC(=O)O [Octanoic acid, octanoic acid]
[4]
  Observed Efficacy, W (%): 4.5%

## Cc1cc(C(F)(F)F)nn1CC(=O)N1CCC(c2nc(C3=NOC(c4c(F)cccc4F)C3)cs2)CC1 (stereo not shown) [Oxathiapiprolin, reference compound]
[3]; [14]
  MIC (A): 500 µg/mL

## COC(=O)N(OC)c1ccccc1COc1ccn(-c2ccc(Cl)cc2)n1 [Pyraclostrobin, pyraclostrobin, reference compound]
[3]; Compound A alone, incubation period of 2 days, read-out: MIC (A)
  MIC: 15 µg/mL
[2]; 7 days incubation
  MIC (A): 3.75 µg/mL

## CC(C)(C)C(O)(CCc1ccc(Cl)cc1)Cn1cncn1 (stereo not shown) [Tebuconazole, reference compound]
[1]; [12]
  MIC (A): 225 µg/mL
[1]; Fusarium oxysporum, Compound A alone, Fusarium oxysporum, incubation period of 48 hours, read-out: MIC (A)
  MIC: 112 µg/mL
[3]; [13]
  MIC (A): 112.5 µg/mL
[3]; [14]
  MIC (A): 112.5 µg/mL
[2]; Sclerotinia sclerotiorum, 2-fold dilutions, incubation period of 7 days
  MIC (A): 112.5 µg/mL

## CCCCCC/C=C/C(=O)O [Trans-2 nonenoic acid]
[4]
  Observed Efficacy, W (%): 3.6%

## CCCCCCCC/C=C/C(=O)O [Trans-2 undecenoic acid]
[4]
  Observed Efficacy, W (%): 27.3%

## CCCC/C=C/CC(=O)O [Trans-3 octenoic acid]
[4]
  Observed Efficacy, W (%): 4.5%

## CC/C=C/CC(=O)O [Trans-3-hexenoic acid, trans-3-hexenoic acid]
[4]
  Observed Efficacy, W (%): 0%
